Results: patent US20260224563A1, “CRYSTALLINE FORMS OF 6-(3-((5-CHLORO-2-METHOXYPYRIDINE)-3-SULFONAMIDO)-2,6-DIFLUOROPHENYL)-N-METHYLIMIDAZO[1,5-A]PYRAZINE-1-CARBOXAMIDE AND METHODS FOR USING THE SAME” (HIBERCELL, INC., priority 2023, published 2026)
Like-named read-outs stand apart in the source and are kept apart here.

Assay: Multicenter, open-label, Phase 1a/b study of HC-7366 in subjects with advanced solid tumors (safety, PK)
Type: in vivo
Details: for ARAUC: accumulation ratio based on AUC0-τ; for ARAUC / CL/F / Ctrough / DAUC0-last / DAUC0-τ / DCmax / tlast / Cmax / half-life / AUC(0-t) / Vd/F / Tmax: human; for Cmax / half-life / AUC(0-t) / Vd/F / Tmax: plasma, po; for Vd/F: read-out: Vz/F
Description: Identify the maximum tolerated dose (MTD) and/or recommended Phase 2 dose (RP2D) of HC-7366, and evaluate the safety, tolerability, and dose-limiting toxicities (DLTs) of HC-7366 using Form III of the potassium salt of the compound of formula (I) (see Example 6, also referred to within this example as HC-7366-K), in subjects with advanced solid tumors, including: • a. occurrence of DLTs • b. incidence and severity of treatment-emergent adverse events (TEAEs) and treatment related TEAEs according to National Cancer Institute Common Terminology Criteria for Adverse Events (NCI CTCAE) v 5.0 • c. incidence of TEAEs leading to premature discontinuation • d. incidence of laboratory abnormalities, based on NCI CTCAE grades of hematology, serum chemistry, and urinalysis test results • e. incidence of abnormalities observed in 12 lead ECG parameters • f. incidence of abnormalities observed in vital signs measurements
Determine plasma concentration and pharmacokinetic (PK) parameters following treatment with HC-7366 using Form III of the potassium salt of the compound of formula (I) (see Example 6, also referred to within this example as HC-7366-K).
Preliminarily assess the potential antitumor activity of HC-7366 in terms of response rate, disease stabilization, and survival outcomes by assessing: • a. Overall response rate (ORR) to HC-7366 using response evaluation criteria in solid tumors (iRECIST) • b. Duration of response (DOR) to HC-7366 using iRECIST • c. Time to treatment failure (TTF) • d. Progression free survival (PFS) using iRECIST • e. Overall survival (OS)
This is a first in human, multicenter, open label, Phase 1a and 1b dose-escalation and dose-expansion study to establish the maximum tolerated dose, recommended Phase 2 dose, and evaluate the safety and tolerability of QD oral dosing of HC 7366 in a dose escalating fashion in subjects with advanced solid tumors. Up to 40 subjects were enrolled into the Phase 1a dose-escalation part of the study. The study was conducted in the United States at approximately 7 to 10 sites.
Every effort was made to ensure approximately 50% of all subjects enrolled into Phase 1a of this study are subjects with the tumors of special interest including squamous cell carcinoma of the head and neck, colorectal cancer, non-small cell lung cancer, and transitional cell carcinoma of the bladder. […] All subjects in Phase 1b enrolled with clear cell renal cell carcinoma. The Phase 1a study followed a traditional 3+3 design. The starting dose level was 10 mg QD, escalating to 20, 40, 75, 125, and 150 mg QD as safety allows. All doses were administered in the fasting state with water at least 1 hour before food or at least 2 hours after food.
The Phase 1b dose-expansion was at a single dose level of 75 mg based on the safety, tolerability, PK/PD results from Phase 1a to obtain additional safety and preliminary efficacy information. Up to 30 subjects were enrolled in the Phase 1b portion of the study at the 75 mg dose. Replacement patients were enrolled as necessary. Subjects were dosed until unacceptable toxicity, disease progression per immune-related Response Evaluation Criteria in Solid Tumors, discontinuation of treatment for other protocol allowed reason (eg, subject refusal), any other administrative reasons, or after 2 years of treatment, whichever occurs first.
For scheduling purposes, dosing in Phase 1a and 1b occurred in 3 week cycles and computed tomography scans were conducted once every 6 weeks from Cycle 1/Day 1, with the first postbaseline scan after 6 weeks of dosing (precycle 3) until confirmed disease progression, death, start of new anticancer therapy, withdrawal of consent, or end of study, whichever occurs first.
Subjects of Phase 1a and 1b spent Cycle 1/Day 1 (C1D1) in the clinic followed by an optional overnight stay for safety monitoring and PK sampling. Subjects were hospitalized (optional) for administration of the first 2 doses: C1D1 and Cycle 1/Day 2 (C1D2). […]

[1] = multiple once daily oral 10 mg (N = 3), Cycle 1 Day 21, geometric mean
[2] = multiple once daily oral 20 mg (N = 3), Cycle 1 Day 21, geometric mean
[3] = multiple once daily oral 40 mg (N = 8), Cycle 1 Day 21, geometric mean
[4] = multiple once daily oral 75 mg (N = 7), Cycle 1 Day 21, geometric mean
[5] = multiple once daily oral 125 mg (N = 1), Cycle 1 Day 21
[6] = human subjects, multiple once daily oral administration, 10 mg
[7] = human subjects, multiple once daily oral administration, 20 mg
[8] = human subjects, multiple once daily oral administration, 40 mg
[9] = human subjects, multiple once daily oral administration, 75 mg
[10] = human subjects, multiple once daily oral administration, 125 mg (N=1)
[11] = 10 mg, multiple once daily oral 10 mg (N = 3), Cycle 1 Day 21, geometric mean
[12] = 10 mg, single oral dose 10 mg (N = 3), Cycle 1 Day 1, geometric mean
[13] = 20 mg, multiple once daily oral 20 mg (N = 3), Cycle 1 Day 21, geometric mean
[14] = 20 mg, single oral dose 20 mg (N = 3), Cycle 1 Day 1, geometric mean
[15] = 40 mg, multiple once daily oral 40 mg (N = 8), Cycle 1 Day 21, geometric mean
[16] = 40 mg, single oral dose 40 mg (N = 11), Cycle 1 Day 1, geometric mean

## CNC(=O)c1ncn2cc(-c3c(F)ccc(NS(=O)(=O)c4cc(Cl)cnc4OC)c3F)ncc12 [HC-7366, 6-(3-((5-chloro-2-methoxypyridine)-3-sulfonamido)-2,6-difluorophenyl)-N-methylimidazo[1,5-a]pyrazine-1-carboxamide]
[1]
  ARAUC: 1.45
  CL/F: 0.457 L/h
  Ctrough: 517 ng/mL
  DAUC0-last: 1700 ng·h/mL/mg
  DAUC0-τ: 2190 ng·h/mL/mg
  DCmax: 198 ng/mL/mg
[2]
  ARAUC: 1.46
  CL/F: 0.478 L/h
  Ctrough: 674 ng/mL
  DAUC0-last: 2090 ng·h/mL/mg
  DAUC0-τ: 2090 ng·h/mL/mg
  DCmax: 185 ng/mL/mg
[3]
  ARAUC: 1.89
  CL/F: 0.403 L/h
  Ctrough: 2360 ng/mL
  DAUC0-last: 2380 ng·h/mL/mg
  DAUC0-τ: 2480 ng·h/mL/mg
  DCmax: 184 ng/mL/mg
[4]
  ARAUC: 1.77
  CL/F: 0.402 L/h
  Ctrough: 5010 ng/mL
  DAUC0-last: 2210 ng·h/mL/mg
  DAUC0-τ: 2490 ng·h/mL/mg
  DCmax: 190 ng/mL/mg
[5]
  ARAUC: 1.13
  CL/F: 0.311 L/h
  Ctrough: 3780 ng/mL
  DAUC0-last: 2080 ng·h/mL/mg
  DAUC0-τ: 3210 ng·h/mL/mg
  DCmax: 306 ng/mL/mg
Human subjects, 10 to 75 mg, single dose and multiple once daily dosing
  dose proportionality of exposure (geometric mean Cmax and AUC): increased approximately proportional to increases in dose
Human subjects, continuous once daily dosing, trough concentrations
  time by which exposure appeared to be at steady-state: Cycle 1 Day 8 to Day 15
Human subjects, increase from 75 to 125 mg, single dose administration
  dose proportionality of exposure: slightly greater than dose proportional
[6]
  geometric mean accumulation ratio (ARAUC): 1.45
  geometric mean linearity ratio (LR): 1.11
[7]
  geometric mean accumulation ratio (ARAUC): 1.46
  geometric mean linearity ratio (LR): 1.14
[8]
  geometric mean accumulation ratio (ARAUC): 1.89
  geometric mean linearity ratio (LR): 1.11
[9]
  geometric mean accumulation ratio (ARAUC): 1.77
  geometric mean linearity ratio (LR): 1.22
[10]
  accumulation ratio (ARAUC): 1.13
  linearity ratio (LR): 0.759
Multiple once daily oral 10 mg (N = 3), Cycle 1 Day 21, median
  tlast: 12.00 h
Multiple once daily oral 20 mg (N = 3), Cycle 1 Day 21, median
  tlast: 24.00 h
Multiple once daily oral 40 mg (N = 8), Cycle 1 Day 21, median
  tlast: 24.00 h
Multiple once daily oral 75 mg (N = 7), Cycle 1 Day 21, median
  tlast: 24.00 h
[11]
  Cmax: 1980 ng/mL
  half-life: 9.94 h
  Vd/F: 6.55 L
10 mg, multiple once daily oral 10 mg (N = 3), Cycle 1 Day 21, geometric mean, read-out: AUC0-last
  AUC(0-t): 17000 ng·h/mL
10 mg, multiple once daily oral 10 mg (N = 3), Cycle 1 Day 21, median
  Tmax: 2 h
[12]
  Cmax: 1450 ng/mL
  half-life: 11.3 h
  Vd/F: 8.26 L
10 mg, single oral dose 10 mg (N = 3), Cycle 1 Day 1, geometric mean, read-out: AUC0-24
  AUC(0-t): 15100 ng·h/mL
10 mg, single oral dose 10 mg (N = 3), Cycle 1 Day 1, geometric mean, read-out: AUC0-last
  AUC(0-t): 15100 ng·h/mL
10 mg, single oral dose 10 mg (N = 3), Cycle 1 Day 1, median
  Tmax: 2 h
[13]
  Cmax: 3710 ng/mL
  half-life: 12.2 h
  Vd/F: 8.4 L
20 mg, multiple once daily oral 20 mg (N = 3), Cycle 1 Day 21, geometric mean, read-out: AUC0-last
  AUC(0-t): 41900 ng·h/mL
20 mg, multiple once daily oral 20 mg (N = 3), Cycle 1 Day 21, median
  Tmax: 2 h
[14]
  Cmax: 2330 ng/mL
  half-life: 9.99 h
  Vd/F: 7.84 L
20 mg, single oral dose 20 mg (N = 3), Cycle 1 Day 1, geometric mean, read-out: AUC0-24
  AUC(0-t): 28700 ng·h/mL
20 mg, single oral dose 20 mg (N = 3), Cycle 1 Day 1, geometric mean, read-out: AUC0-last
  AUC(0-t): 28700 ng·h/mL
20 mg, single oral dose 20 mg (N = 3), Cycle 1 Day 1, median
  Tmax: 4 h
[15]
  Cmax: 7360 ng/mL
  half-life: 12.4 h
  Vd/F: 8.31 L
40 mg, multiple once daily oral 40 mg (N = 8), Cycle 1 Day 21, geometric mean, read-out: AUC0-last
  AUC(0-t): 95000 ng·h/mL
40 mg, multiple once daily oral 40 mg (N = 8), Cycle 1 Day 21, median
  Tmax: 2 h
[16]
  Cmax: 4520 ng/mL
  half-life: 14.8 h
